From patent publication US5236899A (Merck & Co., Inc., priority 1991, dated 1993) come the findings set out here.

What is called IC50 is the concentration that gives 50% inhibition.

Series [1] is described as follows: Nephrotoxicity in an in vivo mouse model. The conditions noted are these: result in words.
The test system of series [2] is Parental CHO cells (Drug Sensitive). The series can be described thus: Doxorubicin growth inhibition, methylene blue staining method, parental drug-sensitive cells. Conditions: Cricetulus griseus, doxorubicin only, about 72 hours continuous exposure. Type of series: cell-based, Chinese hamster. As to the method:
Equal numbers of cells of an anchorage dependent mammalian cell line are seeded in growth medium (e.g. alpha MEM plus 10% FBS) into a suitable culture vessel, e.g. plastic 96 well tissue culture plates. A cytotoxic drug (e.g. doxorubicin) is added to the cells in the dishes at various concentrations ranging between 0 and 100 uM. Following about 72 hours of continuous exposure to the cytotoxic agent, the growth medium is decanted and the cells are washed with a suitable buffer, e.g. phosphate buffered saline (PBS). About 2 ml of a solution of 2% methylene blue (dissolve methylene blue in a solution of about 50% ethanol in water) is added to the cells on the dishes. The dye is allowed to contact the cells for about 2 minutes. Excess dye is washed away with cold water and the plates are air dried. The dye stained cells are then solubilized by adding an equal volume to all wells of a solution of a detergent, e.g. 1% N-lauroyl-sarcosine. The amount of dye remaining in the wells directly correlates witht he number of cells in the well. The amount of methylene blue dye in the wells can be measured spectrophotometrically by measuring absorbance at 600 nm using an electronic ELISA plate spectrophotmeter (Minireader II, Dynatech Laboratories, Alexandria, VA). […]

The subject of series [3] is MDR CHO cells (multidrug-resistant). The series can be described thus: Doxorubicin growth inhibition, methylene blue staining method, multidrug-resistant cells. Type of series: cell-based, Chinese hamster. Conditions: Cricetulus griseus, doxorubicin only, about 72 hours continuous exposure. From the text:
Multidrug-resistant cells lines are easily obtainable for in vitro determination of drug sensitization by compounds of the present invention, as well as other compounds with similar activity. These cell lines include NIH-OVCAR-3 (ATCC HTB161)., which is commercially available. Other cell lines can be readily developed in accordance with the methods described by Twentyman et al., Br. J. Cancer, 54, 253 (1986). This procedure selects for multidrug-resistant cells by culturing the parental drug sensitive cell line in the continued presence of a cytotoxic drug, for example, doxorubicin.
Drug sensitive cells will perish while multidrug-resistant cells will survive and grow despite the presence of the drug. Eventually, a multidrug-resistant cell population emerges and can be used in an assay system for the detection of agents which can modify the multidrug-resistance. Many cell lines are suitable as parental cell lines from which multidrug-resistant cells can be selected. […]
Equal numbers of cells of an anchorage dependent mammalian cell line are seeded in growth medium (e.g. alpha MEM plus 10% FBS) into a suitable culture vessel, e.g. plastic 96 well tissue culture plates. […] The amount of methylene blue dye in the wells can be measured spectrophotometrically by measuring absorbance at 600 nm using an electronic ELISA plate spectrophotmeter (Minireader II, Dynatech Laboratories, Alexandria, VA). […]

Turning to `C/C=C/C[C@@H](C)[C@@H](O)[C@H]1C(=O)N[C@@H](CC)C(=O)N(C)CC(=O)N(C)[C@@H](CC(C)C)C(=O)N[C@@H](C(C)C)C(=O)N(C)[C@@H](CC)C(=O)N[C@@H](C)C(=O)N[C@H](C)C(=O)N(C)[C@@H](CC(C)C)C(=O)N(C)[C@@H](CC(C)C)C(=O)N(C)[C@@H](C(C)C)C(=O)N1C` [6-MeAbu], the Nephrotoxicity entry in series [1] is listed as “lack the nephrotoxic side effects”.
`C/C=C/C[C@@H](C)[C@@H](O)[C@H]1C(=O)N[C@@H](CC)C(=O)N(C)CC(=O)N(C)[C@@H](CC(C)C)C(=O)N[C@@H](C(C)C)C(=O)N(C)[C@@H](C)C(=O)N[C@@H](C)C(=O)N[C@H](C)C(=O)N(C)[C@@H](CC(C)C)C(=O)N(C)[C@@H](CC(C)C)C(=O)N(C)[C@@H](C(C)C)C(=O)N1C` [6-MeAla, Cyclo[-((2S,3R,4R,6E)-3-Hydroxy-4-methyl-2-methylamino-6-octenoyl)-L-2-aminobutyryl-sarcosyl-N-methyl-L-leucyl-Valyl-N-methyl-L-alanyl-L-alanyl-D-alanyl-N-methyl-L-leucyl-N-methyl-L-leucyl-N-methyl-L-valyl]]: the Nephrotoxicity entry in series [1] is reported as “lack the nephrotoxic side effects”.
For `COc1cccc2c1C(=O)c1c(O)c3c(c(O)c1C2=O)C[C@@](O)(C(=O)CO)C[C@@H]3O[C@H]1C[C@H](N)[C@H](O)[C@H](C)O1` [Doxorubicin, doxorubicin], the IC50 in series [2] was 0.17 ± 0.01 µM; in series [3] it was 11.3 ± 0.51 µM.
